Measurements: patent US20080038333A1, “Formulations For Poorly Soluble Drugs” (Bio-Dar Ltd., priority 2004, published 2008)

Assay: Solvent evaporation of nanoemulsion, crystal formation (electron microscopy)
Assay type: physicochemical
Conditions: evaporation performed after the beads formation, FIG. 4
Description: The organic solvent (toluene) was evaporated with Rotavapor (R-114 BUCHI) from the emulsion to form a dispersion of lipophilic drug in water. The organic solvent evaporation was performed in four steps, water was added up to the initial weight after each step.

CCC(C)(C)C(=O)O[C@H]1C[C@@H](C)C=C2C=C[C@H](C)[C@H](CC[C@@H]3C[C@@H](O)CC(=O)O3)[C@H]21 [simvastatine]
drug particle state after solvent evaporation: remain as nanoparticles
